Measurements taken from PubChem BioAssay AID330 (DTP/NCI, 2004).
Several values for one entry are separate records, joined by “and”; a condition that tells them apart may be missing. Equal values may be shown once. Inconclusive results and toxic doses are left out. The calls were made as follows: active = survival T/C of 150% or more; inactive = T/C below 125% in these data.

Test system: P388 leukemia ip, CD2F1 mice, survival T/C
Assay: NCI In Vivo Anticancer Drug Screen. Data for tumor model P388 Leukemia (intraperitoneal) in CD2F1 (CDF1) mice
Settings: endpoint: median survival time, higher = longer survival
Summary of the method: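 Mice carrying the transplanted tumor received test compound or vehicle. Survival was recorded in each group, and the value is the treated-group measurement divided by that of the vehicle-treated control group.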

[1] = dose: 60.0 mg/kg/injection, schedule: Q01DX005 (ip), vehicle: saline with Tween-80
[2] = dose: 120.0 mg/kg/injection, schedule: Q01DX005 (ip), vehicle: saline with Tween-80
[3] = dose: 240.0 mg/kg/injection, schedule: Q01DX005 (ip), vehicle: saline with Tween-80
[4] = dose: 100.0 mg/kg/injection, schedule: Q01DX001 (ip), vehicle: Klucel (hydroxypropylcellulose) (HPC)
[5] = dose: 200.0 mg/kg/injection, schedule: Q01DX001 (ip), vehicle: Klucel (hydroxypropylcellulose) (HPC)
[6] = dose: 400.0 mg/kg/injection, schedule: Q01DX001 (ip), vehicle: Klucel (hydroxypropylcellulose) (HPC)
[7] = dose: 60.0 mg/kg/injection, schedule: Q01DX005 (ip), vehicle: Klucel (hydroxypropylcellulose) (HPC)
[8] = dose: 12.5 mg/kg/injection, schedule: Q01DX009 (ip), vehicle: saline
[9] = dose: 25.0 mg/kg/injection, schedule: Q01DX009 (ip), vehicle: saline

Measured: T/C

COc1ccc(OC)c(C(=O)C=C(C(F)(F)F)C(F)(F)F)c1
inactive: dose: 25.0 mg/kg/injection, schedule: Q01DX009 (ip), vehicle: other 120 % of control | dose: 50.0 mg/kg/injection, schedule: Q04DX003 (ip), vehicle: other 113 % of control | dose: 66.0 mg/kg/injection, schedule: Q04DX003 (ip), vehicle: other 109 % of control | dose: 100.0 mg/kg/injection, schedule: Q01DX009 (ip), vehicle: other 95 % of control | dose: 100.0 mg/kg/injection, schedule: Q04DX003 (ip), vehicle: other 109 % of control | dose: 150.0 mg/kg/injection, schedule: Q04DX003 (ip), vehicle: other 113 % of control

O=C1CC(c2ccc([N+](=O)[O-])cc2)O1 (stereo not drawn)
inactive: dose: 100.0 mg/kg/injection, schedule: Q01DX001 (ip), vehicle: saline 101 % of control | dose: 200.0 mg/kg/injection, schedule: Q01DX001 (ip), vehicle: saline 104 % of control | dose: 400.0 mg/kg/injection, schedule: Q01DX001 (ip), vehicle: saline 102 % of control

O=C(CCN1C(=O)CC1c1ccco1)N1CCOCC1 (stereo not drawn)
inactive: [1] 103 % of control | [2] 103 % of control | [3] 97 % of control

CN1C(=O)/C(=C2\SC(=O)N(Cc3nc4ccccc4[nH]3)C2=O)c2cc(Br)ccc21
inactive: [4] 98 % of control | [5] 95 % of control | [6] 88 % of control

CCC1=C(C)CCN(C)C1Cc1ccc(OC)cc1 (stereo not drawn)
inactive: dose: 15.0 mg/kg/injection, schedule: Q01DX005 (ip), vehicle: Klucel (hydroxypropylcellulose) (HPC) 106 % of control | dose: 30.0 mg/kg/injection, schedule: Q01DX005 (ip), vehicle: Klucel (hydroxypropylcellulose) (HPC) 98 % of control | [7] 100 % of control and 102 % of control

CCC(=O)NC(CC(C)C)C(=O)O (stereo not drawn)
inactive: [8] 111 % of control | [9] 95 % of control | dose: 50.0 mg/kg/injection, schedule: Q01DX009 (ip), vehicle: saline 89 % of control | dose: 200.0 mg/kg/injection, schedule: Q01DX009 (ip), vehicle: saline 107 % of control

C/C=C1\CN2CCC34c5ccccc5N5C(C6C7CC8N(CCC89c8cccc(O)c8N(C(C)=O)C69)C/C7=C\C)OCC(C1CC23)C54 (stereo not drawn)
inactive: dose: 11.25 mg/kg/injection, schedule: Q01DX009 (ip), vehicle: saline with Tween-80 106 % of control | dose: 22.5 mg/kg/injection, schedule: Q01DX009 (ip), vehicle: saline with Tween-80 105 % of control | dose: 45.0 mg/kg/injection, schedule: Q01DX009 (ip), vehicle: saline with Tween-80 106 % of control | dose: 90.0 mg/kg/injection, schedule: Q01DX009 (ip), vehicle: saline with Tween-80 104 % of control

O=C(CC(C(=O)O)N1CCNCC1)c1ccc(Cl)cc1 (stereo not drawn)
inactive: dose: 50.0 mg/kg/injection, schedule: Q01DX005 (ip), vehicle: saline 100 % of control | dose: 100.0 mg/kg/injection, schedule: Q01DX005 (ip), vehicle: saline 107 % of control | dose: 200.0 mg/kg/injection, schedule: Q01DX005 (ip), vehicle: saline 101 % of control

COc1ccc(C(=O)N=C(N)n2nc(C)cc2C)cc1
inactive: dose: 100.0 mg/kg/injection, schedule: Q04DX003 (ip), vehicle: Klucel (hydroxypropylcellulose) (HPC) 90 % of control | dose: 200.0 mg/kg/injection, schedule: Q04DX003 (ip), vehicle: Klucel (hydroxypropylcellulose) (HPC) 101 % of control | dose: 400.0 mg/kg/injection, schedule: Q04DX003 (ip), vehicle: Klucel (hydroxypropylcellulose) (HPC) 94 % of control

COC1C(COC(=O)c2ccccc2)OC(OC(C)=O)C1OC(C)=O (stereo not drawn)
inactive: dose: 50.0 mg/kg/injection, schedule: Q01DX005 (ip), vehicle: saline with Tween-80 94 % of control | dose: 100.0 mg/kg/injection, schedule: Q01DX005 (ip), vehicle: saline with Tween-80 96 % of control | dose: 200.0 mg/kg/injection, schedule: Q01DX005 (ip), vehicle: saline with Tween-80 100 % of control

CC(=O)OCC(COC(C)=O)(CN1C(=O)c2ccccc2C1=O)CN1C(=O)c2ccccc2C1=O
inactive: [1] 100 % of control | [2] 102 % of control | [3] 102 % of control

CCN1C[C@@]2(C)CCC(OC)C34[C@H]2[C@@H](OC(C)=O)C2(OCO[C@]25C[C@@H](OC)C2C[C@@]3(O)[C@H]5C2O)[C@@H]14 (stereo partly drawn)
inactive: dose: 4.0 mg/kg/injection, schedule: Q01DX005 (ip), vehicle: saline with Tween-80 100 % of control | dose: 8.0 mg/kg/injection, schedule: Q01DX005 (ip), vehicle: saline with Tween-80 99 % of control | dose: 16.0 mg/kg/injection, schedule: Q01DX005 (ip), vehicle: saline with Tween-80 97 % of control | dose: 32.0 mg/kg/injection, schedule: Q01DX005 (ip), vehicle: saline with Tween-80 107 % of control | dose: 64.0 mg/kg/injection, schedule: Q01DX005 (ip), vehicle: saline with Tween-80 108 % of control

COc1cc(CCl)c(I)c(OC)c1OC
inactive: [4] 103 % of control | [5] 107 % of control | [6] 102 % of control

CCN1CC2(C)CCC(OC)C34C5CC6CCC(O)(C5C(=O)O6)C(C(O)C23)C14 (stereo not drawn)
inactive: dose: 25.0 mg/kg/injection, schedule: Q01DX009 (ip), vehicle: Klucel (hydroxypropylcellulose) (HPC) 100 % of control | dose: 50.0 mg/kg/injection, schedule: Q01DX009 (ip), vehicle: Klucel (hydroxypropylcellulose) (HPC) 98 % of control | dose: 100.0 mg/kg/injection, schedule: Q01DX009 (ip), vehicle: Klucel (hydroxypropylcellulose) (HPC) 95 % of control

Cc1cc[n+](C)c(-c2ccccc2)c1
inactive: dose: 6.25 mg/kg/injection, schedule: Q01DX009 (ip), vehicle: saline 90 % of control | [8] 104 % of control | [9] 113 % of control

Nc1ccc(N=Nc2ccc(S(=O)(=O)O)cc2)cc1
inactive: dose: 100.0 mg/kg/injection, schedule: Q04DX003 (ip), vehicle: saline with Tween-80 95 % of control | dose: 200.0 mg/kg/injection, schedule: Q04DX003 (ip), vehicle: saline with Tween-80 100 % of control | dose: 400.0 mg/kg/injection, schedule: Q04DX003 (ip), vehicle: saline with Tween-80 100 % of control

O=C1c2ccccc2C(Br)CCC1Br (stereo not drawn)
inactive: dose: 100.0 mg/kg/injection, schedule: Q01DX009 (ip), vehicle: distilled water + Tween-80 + alcohol 115 % of control | dose: 200.0 mg/kg/injection, schedule: Q01DX009 (ip), vehicle: distilled water + Tween-80 + alcohol 115 % of control | dose: 400.0 mg/kg/injection, schedule: Q01DX009 (ip), vehicle: distilled water + Tween-80 + alcohol 113 % of control

COc1n[n+]([O-])c(Cl)cc1[N+](=O)[O-]
inactive: dose: 12.5 mg/kg/injection, schedule: Q01DX009 (ip), vehicle: saline with Tween-80 109 % of control | dose: 25.0 mg/kg/injection, schedule: Q01DX009 (ip), vehicle: saline with Tween-80 108 % of control | dose: 50.0 mg/kg/injection, schedule: Q01DX009 (ip), vehicle: saline with Tween-80 117 % of control | dose: 100.0 mg/kg/injection, schedule: Q01DX009 (ip), vehicle: saline with Tween-80 113 % of control

CCOc1nc(N)nc(C)c1N=Nc1ccccc1OC
inactive: [7] 103 % of control | dose: 120.0 mg/kg/injection, schedule: Q01DX005 (ip), vehicle: Klucel (hydroxypropylcellulose) (HPC) 100 % of control | dose: 240.0 mg/kg/injection, schedule: Q01DX005 (ip), vehicle: Klucel (hydroxypropylcellulose) (HPC) 100 % of control

CCCSC(SCCC)C1OC(c2ccccc2)OC2COC(c3ccccc3)OC21 (stereo not drawn)
inactive: dose: 50.0 mg/kg/injection, schedule: Q01DX005 (ip), vehicle: Klucel + Tween-80 90 % of control | dose: 100.0 mg/kg/injection, schedule: Q01DX005 (ip), vehicle: Klucel + Tween-80 87 % of control | dose: 200.0 mg/kg/injection, schedule: Q01DX005 (ip), vehicle: Klucel + Tween-80 87 % of control
